# Measured values from US7807138B2, “Biomarkers of metabolic responses to hepatic drugs” (Metabolon, Inc., priority 2006, dated 2010).
# Marks after values point to notes of the source that are not given here.
# Experiments:
# [1] = system: rat liver; assay: LC-MS metabolomics of liver from rats dosed with clofibrate; format: in vivo; settings: LCMS
# Description: In one embodiment, the hepatotoxicant is clofibrate. Clofibrate or vehicle is administered orally (0, 50, 250 mg/kg/d) to groups of 6 rats and serum and livers are collected 6 and 24 h after either a single or 14 daily doses. Global biochemical profiles are determined by LC-MS and GC-MS and components highly perturbed by clofibrate exposure are identified by the methods described above. […] Rats (6 per group) were dosed by gavage with vehicle, 50 or 250 mg/kg clofibrate per day for 1 (single dose) or 14 days (repeated dose). These groups are referred to as “day 1” and ‘day 14 (d 1 and d14).” Liver and serum were collected at 6 and 24 h post-dosing in the day 1 and day 14. In detail, a single dose of clofibrate or vehicle was administered by gavage (0, 50 and 250 mg/kg) to groups of 18 male Sprague Dawley rats at 11 wks age. Six rats per dose group were euthanized at 6 and 24 h post-dose. Serum (for metabolomics and alanine aminotransferase (ALT), and aspartate aminotransferase (AST)), liver lobes (for histology), and frozen liver and urine (for metabolomics) were collected. Six rats per dose group were placed in metabolism cages for urine collection at −24-0 h, 0-6 h, 6-24 h and 24-48 h. These rats were removed from metabolism cages at 48 h post-dose, for blood and liver collection. The detailed study design is set forth in Chart 1. Samples were extracted with 20% acetonitrile, then were evaporated and re-constituted in distilled water. For the liver, the left lobe was selected for metabolomic analysis. LC-MS was performed in positive and negative electrospray ionization modes on Bruker time of flight (TOF) instruments, using Icoria™ proprietary HPLC methods and picking and alignment programs. Samples were randomly placed in wells on 96-well plates, keeping d 1 and d 14 samples on separate plates. Between 54 and 72 samples plus quality control samples were run on each plate. Pre- and post-flight instrument checks were carried out. Thereafter, data integrity checks were performed to detect any errors related to our Laboratory Information Management System (LIMS) system, labeling of samples, and missing or extraneous information. […] Metabolites associated with LC-MS components were putatively identified using our proprietary database of mammalian metabolites as well as external sources of metabolic information.
# [2] = system: rat liver; assay: GC-MS metabolomics of liver from rats dosed with clofibrate; format: in vivo; settings: 250 mg/kg/d
# Description: In one embodiment, the hepatotoxicant is clofibrate. Clofibrate or vehicle is administered orally (0, 50, 250 mg/kg/d) to groups of 6 rats and serum and livers are collected 6 and 24 h after either a single or 14 daily doses. Global biochemical profiles are determined by LC-MS and GC-MS and components highly perturbed by clofibrate exposure are identified by the methods described above. […] Rats (6 per group) were dosed by gavage with vehicle, 50 or 250 mg/kg clofibrate per day for 1 (single dose) or 14 days (repeated dose). These groups are referred to as “day 1” and ‘day 14 (d 1 and d14).” Liver and serum were collected at 6 and 24 h post-dosing in the day 1 and day 14. In detail, a single dose of clofibrate or vehicle was administered by gavage (0, 50 and 250 mg/kg) to groups of 18 male Sprague Dawley rats at 11 wks age. Six rats per dose group were euthanized at 6 and 24 h post-dose. Serum (for metabolomics and alanine aminotransferase (ALT), and aspartate aminotransferase (AST)), liver lobes (for histology), and frozen liver and urine (for metabolomics) were collected. Six rats per dose group were placed in metabolism cages for urine collection at −24-0 h, 0-6 h, 6-24 h and 24-48 h. These rats were removed from metabolism cages at 48 h post-dose, for blood and liver collection. The detailed study design is set forth in Chart 1. For GC-MS, liver was extracted with CHCl3:MeOH mixtures. Organic residue was derivitized with BSTFA and dried aqueous residues were derivitized with methoxyamine HCl/BSTFA. Samples were injected with 10:1 split into an Agilent 6890 gas chromatograph. A Leco Pegasus III TOFMS was used. Ions were generated at 70 eV with 3.2 mA ionization current; 25 spectra/s were recorded for 60-800 m/z. Acceleration voltage activated after 180 solvent delay. Detector voltage: 1750 V. Data were processed with Leco ChromaTOF software. Automatic peak detection and mass spectrum deconvolution were performed using 1.33 s peak width. Peaks with S/N less than 20 were rejected. Component identification was accomplished with the NIST 98' MS library and, in some cases, verified with standards. Components with similarity greater than 600 were used for analysis.
# [3] = system: rats; assay: Liver enzymes ALT and AST in serum; format: in vivo, rat; settings: 50 or 250 mg/kg, any groups
# Description: In detail, a single dose of clofibrate or vehicle was administered by gavage (0, 50 and 250 mg/kg) to groups of 18 male Sprague Dawley rats at 11 wks age. Six rats per dose group were euthanized at 6 and 24 h post-dose. Serum (for metabolomics and alanine aminotransferase (ALT), and aspartate aminotransferase (AST)), liver lobes (for histology), and frozen liver and urine (for metabolomics) were collected. Six rats per dose group were placed in metabolism cages for urine collection at −24-0 h, 0-6 h, 6-24 h and 24-48 h. These rats were removed from metabolism cages at 48 h post-dose, for blood and liver collection. The detailed study design is set forth in Chart 1.
# [4] = system: rat liver; assay: Liver histology; format: in vivo
# Description: […] Six rats per dose group were euthanized at 6 and 24 h post-dose. Serum (for metabolomics and alanine aminotransferase (ALT), and aspartate aminotransferase (AST)), liver lobes (for histology), and frozen liver and urine (for metabolomics) were collected. Six rats per dose group were placed in metabolism cages for urine collection at −24-0 h, 0-6 h, 6-24 h and 24-48 h. These rats were removed from metabolism cages at 48 h post-dose, for blood and liver collection. The detailed study design is set forth in Chart 1.
# [5] = system: rat liver; settings: rats, cited from earlier work
# [6] = 50 mg/kg/d for 14 days, 6 H after administration
# [7] = 50 mg/kg/d for 14 days, 24 H after administration
# [8] = 250 mg/kg/d for 14 days, 6 H after administration
# [9] = 250 mg/kg/d for 14 days, 24 H after administration
smiles,measurement,setting,value
"CCOC(=O)C(C)(C)Oc1ccc(Cl)cc1 [Clofibrate, ethyl-p-chloro-phenoxyisobutyrate]",D-Glycerate fold change relative to control,[1]; [6],1.3 fold change
same,Glycero-3-phosphoethanolamine fold change relative to control,[1]; [6],−3.2 fold change
same,Threonate fold change relative to control,[1]; [6],1.3 fold change
same,Ornithine fold change relative to control,[1]; [7],1.84 fold change
same,Threonate fold change relative to control,[1]; [7],−1.4 fold change
same,Various bile acids fold change relative to control,[1]; [7],1.3 fold change
same,Creatine fold change relative to control,[1]; [8],1.4 fold change
same,D-Glycerate fold change relative to control,[1]; [8],1.2 fold change
same,Glutathione fold change relative to control,[1]; [8],−1.5 fold change
same,Glycero-3-phosphoethanolamine fold change relative to control,[1]; [8],−7.7 fold change
same,Hypotaurine fold change relative to control,[1]; [8],1.3 fold change
same,Ornithine fold change relative to control,[1]; [8],2.3-5.4 fold change
same,Serine fold change relative to control,[1]; [8],1.3-1.7 fold change
same,Various bile acids fold change relative to control,[1]; [8],1.4 fold change
same,Creatine fold change relative to control,[1]; [9],2.1 fold change
same,Hypotaurine fold change relative to control,[1]; [9],1.3 fold change
same,Ornithine fold change relative to control,[1]; [9],2.8-10.6 fold change
same,Serine fold change relative to control,[1]; [9],1.7 fold change
same,1-Mono linoleoylglycerol fold change,"[2]; DAY 1, 6 H",1.11*** fold change
same,1-Mono oleoylglycerol fold change,"[2]; DAY 1, 6 H",0.98* fold change
same,1-Mono palmitoylglycerol fold change,"[2]; DAY 1, 6 H",0.91** fold change
same,2-Mono oleoylglycerol fold change,"[2]; DAY 1, 6 H",1.12*** fold change
same,Cholesterol fold change,"[2]; DAY 1, 6 H",1.34*** fold change
same,Glucose (aq) fold change,"[2]; DAY 1, 6 H",0.29* fold change
same,Glycine fold change,"[2]; DAY 1, 6 H",2.69** fold change
same,Lactic acid fold change,"[2]; DAY 1, 6 H",1.56** fold change
same,Linoleic acid fold change,"[2]; DAY 1, 6 H",0.97* fold change
same,Palmitate fold change,"[2]; DAY 1, 6 H",0.95*** fold change
same,Stearate fold change,"[2]; DAY 1, 6 H",1.07* fold change
same,1-Mono stearoylglycerol fold change,"[2]; DAY 1, 24 H",17.14** fold change
same,Glycerol 1(3)-phosphate fold change,"[2]; DAY 1, 24 H",2.56* fold change
same,Glycine fold change,"[2]; DAY 1, 24 H",3.42* fold change
same,L-Aspartic acid fold change,"[2]; DAY 1, 24 H",27.88*** fold change
same,Lactic acid fold change,"[2]; DAY 1, 24 H",4.41* fold change
same,Succinic acid (Butanedioic acid) fold change,"[2]; DAY 1, 24 H",17.05** fold change
same,l-Alanine fold change,"[2]; DAY 1, 24 H",4.74* fold change
same,1-Mono palmitoylglycerol fold change,"[2]; DAY 14, 6 H",0.04** fold change
same,1-Mono stearoylglycerol fold change,"[2]; DAY 14, 6 H",0.22** fold change
same,2-Mono stearoylglycerol fold change,"[2]; DAY 14, 6 H",0.41* fold change
same,Arachidonic acid fold change,"[2]; DAY 14, 6 H",0.22*** fold change
same,Cholesterol fold change,"[2]; DAY 14, 6 H",1.87** fold change
same,Malate fold change,"[2]; DAY 14, 6 H",0.1** fold change
same,Palmitate fold change,"[2]; DAY 14, 6 H",0.72** fold change
same,β-Sitosterol fold change,"[2]; DAY 14, 6 H",0.37** fold change
same,Cholesterol fold change,"[2]; DAY 14, 24 H",0.69** fold change
same,Docosahexaenoic acid fold change,"[2]; DAY 14, 24 H",0.58* fold change
same,Glucose (aq) fold change,"[2]; DAY 14, 24 H",0.39** fold change
same,Malate fold change,"[2]; DAY 14, 24 H",0.33** fold change
same,β-Sitosterol fold change,"[2]; DAY 14, 24 H",0.46* fold change
same,"Clofibrate metabolite Propanoic acid, 2-(4-chlorophenoxy)-2-methyl- in liver",[2]; cell spans the time columns,(not present in control)
same,ALT,[3],not elevated
same,AST,[3],not elevated
same,Histology: hepatocellular cytologic alterations,"[4]; after 14 doses at 250 mg/kg/day, all time points",hepatocellular cytologic alterations (indicating loss of glycogen and eosinophilic granular cytoplasm) were noted at all time points
same,Histology: hepatocellular mitotic figures,"[4]; after a single dose, 50 to 250-mg/kg",dose related increase and severity of hepatocellular mitotic figures
same,Microscopic changes to liver,[5]; 24 h after a single exposure,no microscopic changes to liver
same,Liver histopathology,[5]; after 2 weeks,induced hypertrophy
